Measurements reported in patent US20240226124A9, “CANNABIDIOL FOR TREATING NEURODEGENERATIVE DISEASES” (AUGUSTA UNIVERSITY RESEARCH INSTITUTE, INC., priority 2021, published 2024).

Columns and labels:
Assay type in all cases: in vivo, mouse
TREM2 [1] = test: Immunofluorescence staining of TREM2 in brain tissues; conditions: 5xFAD mice, CBD treated compared to untreated group; distinctively in microglial cells
Experimental: (§1) 5xFAD (expressing human APP and PSEN1 transgenes with a total of five AD-linked mutations) transgenic mice (male 9-12-month-olds) were used. These 5xFAD transgenic mice rapidly recapitulate major features of AD amyloid pathology. Mice were randomized into two experimental groups (placebo or CBD-treated; 6-10 mice/group) by a blinded investigator. A group of untreated wild-type (WT) experiments were performed in accordance with the rules and regulations of the Augusta University Institutional Animal Care and Use Committee (IACUC). In the treatment group, mice received CBD isolate (tetrahydrocannabinol-free, Canabidiol Ltd., Dublin, Ireland), 10 mg/kg intraperitoneally every other day for 8 doses over 2 weeks. Placebo-treated mice were administered along the same schedule as CBD.
(§2) Brain and blood tissues were collected and processed for histology and Immunofluorescence imaging. Briefly, brain tissues were labeled with specific, fluorescent-conjugated antibodies with fluorescent conjugation against amyloid-β, IL-33, IBA1 (for microglia), TREM2, and GFAP (Glial Fibrillary Acidic Protein for astrocytes identification). Slides were counterstained using DAPI (4′,6-diamidino-2-phenylindole) prior to examination and imaging by Zeiss Fluorescence Microscope.

β-amyloid peptide = test: Immunofluorescence staining of β-amyloid peptide in brain tissues; conditions: 5xFAD mice, CBD 10 mg/kg intraperitoneally every other day, 8 doses over 2 weeks; hippocampus area
Experimental: as §1, §2

TREM2 [2] = test: Flow cytometry of TREM2 in brain microglia (CD11b+ cells); conditions: brain of 5xFAD mice, CBD 10 mg/kg intraperitoneally, 8 doses over 2 weeks; p≤0.0001
Experimental: as §1, with “Placebo-treated mice were administered along the same schedule as CBD.” left out
(§3) For flow cytometry analysis, single-cell suspension was prepared from brain, and blood by sieving the brain tissues through a […] cell strainer followed by centrifugation (252 g, 10 min). All cells were then stained with fluorescent antibodies based on routine flow cytometry staining protocol as described previously to quantify astrocytes (GFAP+cells), IL-33, myeloid cells (CD11b+), and TREM2 in the brain as well as leukocytes (CD45+) and IL-6 in the blood. IL-6 was measured as a reliable biomarker in the blood. […] Proper compensation was set to ensure the median fluorescence intensities of negative and positive cells were […] and then was used to gate the population. […]

IL-6 = test: Flow cytometry of IL-6 in peripheral blood leukocytes; conditions: whole blood of 5xFAD mice, CBD 10 mg/kg intraperitoneally, 8 doses over 2 weeks; decreased from 6.9±1.9%, p≤0.009
Experimental: as §1, with “In the treatment group, mice received CBD isolate (tetrahydrocannabinol-free, Canabidiol Ltd., Dublin, Ireland), 10 mg/kg intraperitoneally every other day for 8 doses over 2 weeks. Placebo-treated mice were administered along the same schedule as CBD.” left out
For flow cytometry analysis, single-cell suspension was prepared from brain, and blood by sieving the brain tissues through a […] cell strainer followed by centrifugation (252 g, 10 min). All cells were then stained with fluorescent antibodies based on routine flow cytometry staining protocol as described previously to quantify astrocytes (GFAP+cells), IL-33, myeloid cells (CD11b+), and TREM2 in the brain as well as leukocytes (CD45+) and IL-6 in the blood. IL-6 was measured as a reliable biomarker in the blood. […] Flow cytometry data were analyzed using FlowJo V10. Proper compensation was set to ensure the median fluorescence intensities of negative and positive cells were […] and then was used to gate the population. […]

IL-33 [3] = test: Immunofluorescence staining of IL-33 in brain tissues; conditions: 5xFAD mice, CBD treated compared to untreated group; more evident in astrocytes
Experimental: as §1, §2

5xFAD mice [4] = test: Open Field (OF) test in 5xFAD mice; conditions: CBD 10 mg/kg intraperitoneally every other day, 8 doses over 2 weeks, 10 min test, from 190±90 sec in placebo, p>0.05
Experimental: as §1, with “Placebo-treated mice were administered along the same schedule as CBD.” left out
(§4) To assess the behavior, Open Field (OF) and Novel Object Recognition (NOR) tests were used. […] The ability of the mouse to discriminate between the familiar and novel object was quantified as a discrimination index, DI=(Tn−Tf)/(Tn+Tf), where Tn is the time spent by the mouse with the novel object, and Tf indicates the time spent with the familiar object. In OF evaluation, mice were tested in a square box (40 cm by 40 cm by 40 cm) for 10 min, and activity was digitally recorded. Distance traveled, mean velocity, and time spent in the center zone were analyzed with Ethovision XT video-tracking software (Noldus Information Technology, USA).

IL-33 [5] = test: Flow cytometry of IL-33 in brain astrocytes (GFAP+ cells); conditions: brain of 5xFAD mice, CBD 10 mg/kg intraperitoneally, 8 doses over 2 weeks; p≤0.001
Experimental: as §1, with “Placebo-treated mice were administered along the same schedule as CBD.” left out
as §3

5xFAD mice [6] = test: Novel Object Recognition (NOR) test in 5xFAD mice; conditions: CBD 10 mg/kg intraperitoneally every other day, 8 doses over 2 weeks, from −0.2±0.8 in placebo, p≤0.04
Experimental: as §1, with “Placebo-treated mice were administered along the same schedule as CBD.” left out
as §4

C=C(C)[C@@H]1CCC(C)=C[C@H]1c1c(O)cc(CCCCC)cc1O [CBD, cannabidiol]
TREM2 expression in brain tissues (immunofluorescence) (TREM2 [1]): increase in TREM2 expression
β-amyloid peptide in brain tissues (immunofluorescence) (β-amyloid peptide): reduction of β-amyloid peptide
increase in TREM2 expression in microglia (CD11b+ cells), flow cytometry (TREM2 [2]): 10 fold
IL-6 expression in peripheral leukocytes, flow cytometry (IL-6): 2.1±1.4%
IL-33 expression in brain tissues (immunofluorescence) (IL-33 [3]): increase the expression of IL-33
Central zone stay, OF test (5xFAD mice [4]): 250 ± 80 s
increase in IL-33 expression in astrocytes (GFAP+ cells), flow cytometry (IL-33 [5]): 7 fold
discrimination index (DI), NOR (5xFAD mice [6]): 0.5±0.9
